Source: patent US8609663B2, “Compounds for modulating TLR2” (priority 2009, dated 2013)
Entries after “also recorded” stand apart in the source; their conditions may differ.

Tests used:
[1] = test system: LCMV-induced NF-κB activity; test: cells; format: cell-based, human; conditions: for IC50: Homo sapiens, HEK293, read-out: 50% Inhibitory Dose
[2] = test system: TLR2; format: cell-based, human
[3] = test system: TNF-α-induced IL-8 production; format: cell-based, human
[4] = test system: HSV-induced NF-κB activation; test: HSV-induced NF-κB luciferase assay in SZ10 cells; format: cell-based, human; conditions: HSV-1 7134R
[5] = test system: LCMV; format: cell-based, lymphocytic choriomeningitis virus (LCMV); conditions: 3.3 μM
[6] = test system: cytokine responses in mouse primary macrophages; format: cell-based
[7] = test system: LCMV; format: cell-based, lymphocytic choriomeningitis virus (LCMV)
[8] = test system: LCMV-Arm; format: in vivo, C57BL/6 mice
[9] = test system: HSV-1; test: HSV-1 (VP16-GFP strain) replication in Vero cells, GFP fluorescence; format: cell-based, Herpes simplex virus 1 (HSV-1); conditions: 24 hours, dose-dependent manner
[10] = test system: LCMV-induced IL-8 production; format: cell-based, human
[11] = test system: Tacaribe virus (TCRV); format: cell-based
[12] = test system: IL-8 production in primary human monocytes; format: cell-based
[13] = test system: Pam2CSK4 (TLR2 ligand) and LPS (TLR4 ligand) induced cytokine production; design: species or system C57BL/6 mice; conditions: mouse
[14] = test system: LCMV-Arm; format: cell-based, lymphocytic choriomeningitis virus (LCMV)
[15] = Preliminary toxicity observation in mice; conditions: injected intravenously at 16.67 mg/kg (200 μg/mouse)
[16] = test system: TNF-α-induced NF-κB activity; format: cell-based, human
[17] = test system: HLA-ABC; format: cell-based, human
[18] = test system: Rift Valley Fever Virus (RVFV); format: cell-based

SMILES: O=C(/C=C/c1ccc(O)c(O)c1)OCCc1ccccc1 [CAPE, reference compound]
- LCMV-induced NF-κB activation [1]: effectively blocked

SMILES: CC1CCN(Cc2ccc(NC(=O)NCc3noc4ccccc34)cc2)CC1 [Compound 100]
- LCMV-induced enhanced expression of TLR2 [2]: specifically prevented
- TNF-α-induced expression of TLR2 [2]: did not affect
- TNF-α-induced IL-8 production [3]: did not affect
- HSV-induced NF-κB activation [4]: Blocks
- % Inhibition [1]: 80%
- LCMV-induced NF-κB activity [1]: dramatically inhibited
- LCMV-induced NF-κB activity and cytokine response [1]: specifically inhibit
- IC50 [1]: 1000 nM
- LCMV replication in Vero cells [5]: significantly inhibited
- HSV-1 induced MCP-1 production [6]: efficiently blocked
- HSV-1 induced RANTES production [6]: efficiently blocked
- LCMV induced production of MCP-1 [6]: significantly inhibited
- LCMV induced production of RANTES [6]: significantly inhibited
- LPS induced MCP-1 production [6]: inhibited
- Pam2CSK4 induced MCP-1 production [6]: inhibited
- Pam2CSK4 induced RANTES in vitro in macrophages [6]: inhibit
- poly IC induced production of MCP-1 [6]: did not affect
- poly IC induced production of RANTES [6]: did not affect
- LCMV replication (expression of LCMV-NP) in SZ10 cells [7]: significantly inhibited; also recorded: dramatically inhibited
- LCMV replication in HEK cells that did not express TLR2 [7]: could also inhibit
- levels of virus in the spleen ([8]; 48 h post-infection, n=8, p<0.05 vs DMSO-treated or untreated mice): significantly lower
- LCMV-induced inflammation in a mouse model ([8]; Example 13, i.v. 16.67 mg/kg (200 μg/mouse), serum MCP-1): Inhibits
- LCMV induced MCP-1 production in serum ([8]; single dose 400 μg/mouse (16 mg/kg), 18 h post-infection, vs DMSO): significant decrease
- LCMV induced type I IFN production ([8]; single dose 400 μg/mouse, 18 h post-infection): did not affect
- HSV-1 replication [9]: inhibits
- LCMV-induced IL-8 production [10]: dramatically inhibited
- replication and production of TCRV [11]: can inhibit
- LCMV induced IL-8 production [12]: significant (p<0,01 by two-tailed Student's t test) reduction
- poly IC induced production of IL-8 [12]: did not affect
- recombinant human TNF-α induced production of IL-8 [12]: did not affect
- LPS induced IL-6 induction in vivo [13]: inhibits
- Pam2CSK4 induced IL-6 induction in vivo [13]: inhibits
- LPS induced IL-6 production in serum ([13]; in vivo, iv): significantly blocked
- LPS induced MCP-1 production in serum ([13]; in vivo, iv): significantly blocked
- LPS-induced RANTES production in serum ([13]; in vivo, iv): did not affect
- Pam2CSK4-induced RANTES production in serum ([13]; in vivo, iv): did not affect
- Pam2CSK4 induced IL-6 production in serum ([13]; in vivo, iv): significantly blocked
- Pam2CSK4 induced MCP-1 production in serum ([13]; in vivo, iv): significantly blocked
- LCMV replication in BHK-21 cells [14]: inhibited
- toxic effect in mice [15]: no apparent toxic effect
- TNF-α-induced NF-κB activity [16]: did not affect
- expression of HLA-ABC [17]: did not affect; also recorded: not affected
- activity against RVFV [18]: no role

SMILES: Cc1ccc2onc(CNC(=O)Nc3ccc(CN4CCC(C)CC4)cc3)c2c1 [Compound 101]
- % Inhibition [1]: 60%
- IC50 [1]: 1600 nM

SMILES: Cc1ccc2onc(CNC(=O)Nc3cccc(C(F)(F)F)c3)c2c1 [Compound 102]
- % Inhibition [1]: 27%
- IC50 [1]: > 6600 nM

SMILES: O=C(NCc1noc2ccccc12)Nc1cccc(Cl)c1 [Compound 103]
- % Inhibition [1]: 26%
- IC50 [1]: > 6600 nM

SMILES: COc1cccc(NC(=O)NCc2noc3ccccc23)c1 [Compound 105]
- % Inhibition [1]: 20%
- IC50 [1]: > 6600 nM

SMILES: COC(=O)c1ccc(NC(=O)NCc2noc3ccccc23)cc1 [Compound 106]
- % Inhibition [1]: 75%
- IC50 [1]: 1600 nM

SMILES: CC1CCN(Cc2ccc(NC(=O)Nc3cccs3)cc2)CC1 [Compound 107]
- % Inhibition [1]: 47%
- IC50 [1]: 3000 nM

SMILES: CC1CCN(Cc2ccc(NC(=O)Nc3cn(C)c(=O)c4ccccc34)cc2)CC1 [Compound 108]
- % Inhibition [1]: 39%
- IC50 [1]: > 6600 nM

SMILES: Cc1ccc2onc(CNC(=O)Nc3ccccc3N3CCN(C)CC3)c2c1 [Compound 109]
- % Inhibition [1]: 39%
- IC50 [1]: > 6600 nM

SMILES: O=C(NCCc1ccccc1)c1nnc(-c2cccnc2)o1 [Compound 110]
- % Inhibition [1]: 40%
- IC50 [1]: > 6600 nM

SMILES: COc1cc(CCNC(=O)c2nnc(-c3cccnc3)o2)cc(OC)c1 [Compound 112]
- % Inhibition [1]: 65%
- IC50 [1]: 400 nM

SMILES: CCc1ccc(CCNC(=O)c2nnc(-c3cccnc3)o2)cc1 [Compound 113]
- % Inhibition [1]: 30%
- IC50 [1]: > 6600 nM

SMILES: O=C(NCCc1ccc(O)cc1)c1nnc(-c2cccnc2)o1 [Compound 114]
- % Inhibition [1]: 31%
- IC50 [1]: > 6600 nM

SMILES: O=C(NCCc1ccc(O)c(O)c1)c1nnc(-c2cccnc2)o1 [Compound 115]
- % Inhibition [1]: 40%
- IC50 [1]: > 6600 nM

SMILES: O=C(NCCc1ccc(-c2ccccc2)cc1)c1nnc(-c2cccnc2)o1 [Compound 116]
- % Inhibition [1]: 50%
- IC50 [1]: 800 nM

SMILES: COc1ccc(CCC(C)NC(=O)c2nnc(-c3cccnc3)o2)cc1 (centres unmarked) [Compound 117]
- % Inhibition [1]: 27%
- IC50 [1]: > 6600 nM

SMILES: O=C(NCCc1cccc(Cl)c1)c1nnc(-c2cccnc2)o1 [Compound 118]
- % Inhibition [1]: 50%
- IC50 [1]: 3300 nM

SMILES: CCOc1ccc(CCNC(=O)c2nc(-c3cccnc3)no2)cc1 [Compound 120]
- % Inhibition [1]: 75%
- LCMV-induced NF-κB activity and cytokine response [1]: specifically inhibit
- IC50 [1]: 800 nM

SMILES: O=C(NCc1cccnc1)c1ccc(CSCc2cccc(F)c2)o1 [Compound 121]
- % Inhibition [1]: 60%
- LCMV-induced NF-κB activity and cytokine response [1]: specifically inhibit
- IC50 [1]: 800 nM

SMILES: O=C(COCc1cc(-c2ccco2)on1)Nc1cccnc1 [Compound 122]
- % Inhibition [1]: 50%
- LCMV-induced NF-κB activity and cytokine response [1]: specifically inhibit
- IC50 [1]: 3300 nM
- Pam2CSK4 induced RANTES in vitro in macrophages [6]: inhibit

SMILES: O=C(CCS(=O)(=O)c1nc(-c2ccc3c(c2)OCO3)cc(C(F)(F)F)n1)Nc1ccc(OC(F)(F)F)cc1 [Compound 125]
- % Inhibition [1]: 60%
- LCMV-induced NF-κB activity and cytokine response [1]: specifically inhibit
- IC50 [1]: 800 nM

SMILES: COc1ccc(C2C3=C(CCCC3=O)Nc3[nH]nc(-c4ccc(Cl)cc4)c32)cc1OC (centres unmarked) [Compound 132]
- % Inhibition [1]: 75%
- LCMV-induced NF-κB activity and cytokine response [1]: specifically inhibit
- IC50 [1]: 800 nM

SMILES: O=C1CC(c2ccc(F)cc2)CC2=C1C=Nc1ccccc1N2 (centres unmarked) [Compound 133]
- % Inhibition [1]: 60%
- LCMV-induced NF-κB activity and cytokine response [1]: specifically inhibit
- IC50 [1]: 800 nM

SMILES: O=C(CN(C1=NC2CS(=O)(=O)CC2S1)c1ccc(F)cc1)Nc1ccccc1C(F)(F)F (centres unmarked) [Compound 134]
- % Inhibition [1]: 50%
- LCMV-induced NF-κB activity and cytokine response [1]: specifically inhibit
- IC50 [1]: 1600 nM

SMILES: O=C(Nc1cccnc1)c1ccc(NC(=O)C2OCCc3ccccc32)cc1 (centres unmarked) [Compound 135]
- % Inhibition [1]: 60%
- LCMV-induced NF-κB activity and cytokine response [1]: specifically inhibit
- IC50 [1]: 800 nM

SMILES: COc1cc(/C=C/C(=O)CC(=O)/C=C/c2ccc(O)c(OC)c2)ccc1O [Curcumin, reference compound]
- LCMV-induced NF-κB activation [1]: effectively blocked

SMILES: C=C1C(=O)O[C@@H]2C[C@@H](C)[C@@H]3C=CC(=O)[C@@]3(C)[C@@H](O)[C@H]12 [Helenalin, reference compound]
- LCMV-induced NF-κB activation [1]: effectively blocked

SMILES: CC(C)[C@]12O[C@H]1[C@@H]1O[C@]13[C@]1(O[C@H]1C[C@H]1C4=C(CC[C@@]13C)C(=O)OC4)[C@@H]2O [Triptolide, reference compound]
- LCMV-induced NF-κB activation [1]: effectively blocked
